Source: patent US7148380B2, “Bio-energy muscle relaxants” (priority 2000, dated 2006)
“And” between values parts separate entries of the source, which are not always exact repeats. Identical values can stand only once. Like-named read-outs stand apart in the source and are kept apart here.

Tests used:
[1] = system: drug-induced asthma in guinea pig; experiment: Asthmatic latent period / drug-induced asthma in guinea pig (acetylcholine + histamine inhalation); assay type: in vivo
Procedure: Sensitive animals were chosen by aerosolized inhalation of asthma-inducing agents—a mixed solution of 2% acetylcholine with 0.1% histamine for 15 sec., inducing an asthmatic attack with severe difficulty in respiration and finally resulting in the animal body turned down. The time from beginning of the inhalation to animal turned down was recorded as an index named “turned down time” or asthmatic latent period. Those animals with turned down time less than 120 s. were selected for the study next day. […] Then the latent period was recorded for each of the animals.
(1) Screening animals: animal was put in a glass container, a mixed solution of 2% acetylcholine and 0.1% histamine was nebulized with a pressure of 400 mmHg and inhaled by the animals for 15 sec. Following the end of the inhalation, the time between beginning of the inhalation and the animal turned down due to bronchial spasm and dyspnea was recorded as asthmatic latent period. Those animals with a latent period beyond 120 s. were excluded, and those with a latent period less than 120 s were selected for study the next day.
(4) Measuring: Repeat the inhalation at 30 min, 4 h, and 24 h after administration of the drugs respectively. Asthmatic latent period was recorded, 6 minutes were taken as the maximum, and values beyond 6 min were counted as 6 min.
(5) Data analysis: Values were expressed as mean±sd, and paired for “t” and chi-square tests. Significance was considered to be established when p<0.05.

[2] = system: convulsion induced by strychnine; assay type: in vivo, NIH mice; conditions: for Convulsion / The latent period / Convulsion-Death time / Death: n=12; for The latent period / Convulsion-Death time: mean±SD; for Convulsion-Death time: P<0.01 vs control
Procedure: To investigate the effect, 36 mice (provided by the Center of Experimental Animals, Provincial Health Department, Guangdong, China, Certificate No. 99A030) were used for the study, the animals were grouped as placebo, preventing, and treatment groups. Muscle convulsion was induced with injection of strychnine (1.5 mg/kg I.P., injection product of 2 mg/ml, He Feng Pharmaceutical Co., Shanghai, China, Lot. No. 990701), the beginning and lasting time of the convulsion were recorded.
Half male and female healthy NIH mice with body weight of 20±2 g were selected for the study. The animals were randomly divided into three groups as protective, curative, and control (saline). […] In the control group, saline (20 ml/kg, I.P.) was administered 0.5 h before the strychnine. Immediately following the injection of strychnine, convulsion latent period and the time from beginning of convulsion to death of the animal were recorded. […] (see Table 7).

[3] = system: isolated colon tissues from guinea pigs; experiment: Isolated colon smooth muscle contraction induced by BaCl2; set-up: species or system guinea pig
Excerpt: To investigate this effect, 14 guinea pigs (provided by the Center of Experimental Animals, First Military Medical University, Guangzhou, China, certificate No. 99A047) with body weight of 240±20 g were used for the study. Following sacrifice of the animal by cervical dislocation, the colon was isolated within Botting solution, a segment of the colon in 2 cm length was taken to mount on the equipment—one end connected to a force transducer, the other end fixed at the bottom of the organ water-bath (DC-001 Organ Bath, made in Nanjin, China) containing oxygenated nutritious solution at 37° C.
Group “t” test was then made. Significance is considered to be established when P<0.05
The animals were divided as test group and control (placebo) group.
Where Fc is force of the smooth muscle contraction.
Paired group “t” test was made to compare contraction force after BDM and distilled water to determine whether there is a significant difference between the two groups.

[4] = system: hypertension induced by aramine; experiment: Aramine-induced hypertension, preventive test; assay type: in vivo, SD rats
Procedure: Eighteen (18) SD rats (provided by the Center of Experimental Animals, First Military Medical University, Guang Zhou, China, Certificate No. 99A046) with body weight of 200–250 g were used for the study. The animal was anesthetized with urethane (1.4 g/kg, I.P.), then the main cervical artery was exposed and cannulated, blood pressure was monitored during the experiment. After a 30-minute stabilization period after the operation, normal blood pressure curves were recorded.

[5] = 10 ml/kg I.P. (BDM 0.2M, aminophylline 1.25%), mean±sd
[6] = curative: BDM immediately after strychnine
[7] = preventive: BDM 0.5 h prior to strychnine

Compound: CC(=O)C(C)=NO [BDM, 2,3-butanedione monoxime]
- Asthamatic Latent Period, 4 hours after administration [1, 5]: 99.2 ± 42.1 s
- Asthamatic Latent Period, 24 hours after administration [1, 5]: 81.8 ± 11.0 s
- Incidence of asthmatic spasm ([1]; 30 min after administration, down from 100%, not significant): 60%
- Asthamatic Latent Period, before administration ([1]; baseline before drug, 10 ml/kg I.P. (BDM 0.2M, aminophylline 1.25%), mean±sd): 70.4 ± 21.1 s
- Effect on the latent period ([1]; four and 24 h after administration): no significant effect
- Convulsion ([2]; curative: BDM 0.2M, 20 ml/kg I.P. immediately after strychnine 1.5 mg/kg I.P.): 100%
- The latent period [2, 6]: 134.2 ± 31.5 s
- Convulsion-Death time [2, 6]: 538.3±169.3 s and 538.3 ± 169.3^★★ s
- Death [2, 6]: 100%
- Behaviour of the animals after administration of BDM ([2]; mice, BDM 0.2M, 20 ml/kg, I.P.): reducing activities, difficulties in action and toddling
- Convulsion ([2]; preventive: BDM 0.2M, 20 ml/kg I.P. 0.5 h prior to strychnine 1.5 mg/kg I.P.): 100%
- The latent period [2, 7]: 183.8 ± 32.6 s
- Convulsion-Death time [2, 7]: 496.3±285.3 s and 496.3 ± 285.3^★★ s
- Death [2, 7]: 100%
- Contraction force, After ([3]; BaCl2 0.67 g/L, 10 min after BDM 0.2M, 20 ml/L nutritious sol., single preparations): 1.70 g and 1.35 g and 1.45 g and 1.75 g and 2.20 g
- Contraction force, Before ([3]; BaCl2 0.67 g/L, before BDM, single colon preparations of the test group): 2.35 g and 2.30 g and 2.45 g and 2.70 g and 2.90 g
- Contraction Rate ([3]; force after / before BDM 0.2M, 20 ml/L, single preparations): 72.3% and 58.7% and 61.7% and 76.1% and 69.4% and 64.8% and 75.9%
- Diastolic pressure 2 minutes after BDM administration ([4]; BDM 0.2 M, 10 ml/kg, I.P.): 39.7 ± 6.4^★★ mmHg
- Diastolic pressure 5 minutes after BDM administration ([4]; BDM 0.2 M, 10 ml/kg, I.P.): 39.0 ± 8.7^★★ mmHg
- Diastolic pressure 10 minutes after BDM administration ([4]; BDM 0.2 M, 10 ml/kg, I.P.): 43.0 ± 8.5^★★ mmHg
- Systolic pressure 2 minutes after BDM administration ([4]; BDM 0.2 M, 10 ml/kg, I.P.): 88.0 ± 5.2^★★ mmHg
- Systolic pressure 5 minutes after BDM administration ([4]; BDM 0.2 M, 10 ml/kg, I.P.): 84.0 ± 6.7^★★ mmHg
- Systolic pressure 10 minutes after BDM administration ([4]; BDM 0.2 M, 10 ml/kg, I.P.): 88.2 ± 7.7^★★ mmHg
- Diastolic pressure 2 minutes after aramine administration ([4]; BDM given before aramine): 76.2 ± 21.5^★★ mmHg
- Diastolic pressure 5 minutes after aramine administration ([4]; BDM given before aramine): 76.5 ± 11.9^★★ mmHg
- Diastolic pressure 10 minutes after aramine administration ([4]; BDM given before aramine): 77.0 ± 22.4^★★ mmHg
- Systolic pressure 5 minutes after aramine administration ([4]; BDM given before aramine): 127.5 ± 16.1^★★ mmHg
- Systolic pressure 10 minutes after aramine administration ([4]; BDM given before aramine): 127.7 ± 17.3^★★ mmHg
- Systolic pressure 2 minutes after aramine administration ([4]; BDM given before aramine 30 μg/ml, 0.4 ml/min I.V.): 126.3 ± 16.1^★★ mmHg
- Diastolic pressure, Blood Pressure before ([4]; baseline, mean±SD, n=6–7): 68.7 ± 8.8 mmHg
- Systolic pressure, Blood Pressure before ([4]; baseline, mean±SD, n=6–7): 117.3 ± 3.2 mmHg
- Diastolic blood pressure following aramine administration in BDM group ([4]; control about 120): ~75 mmHg
- Systolic blood pressure following aramine administration in BDM group ([4]; control about 185): about 125 mmHg
- Diastolic blood pressure after administration of BDM ([4]; down from 68, approximately): ~40 mmHg
- Systolic blood pressure after administration of BDM ([4]; down from 117, approximately): ~84 mmHg
